# From patent US20210207153A1, “SYSTEMS AND METHODS FOR EDITING A PLANT GENOME” (PIONEER HI-BRED INTERNATIONAL, INC., priority 2018, published 2021)
# Values joined by “and” are separate entries in the source; they are usually repeats but may differ in a detail not shown here. Equal entries are not always repeated. Structures can show the parent of a compound that is named as a salt. Where two headings read alike, the source gives them in different places.
# What was measured:
# resistant embryos = test: ABA application and embryo partial desiccation on embryo germination frequency; type: cell-based, canola
# Description: To further increase embryo germination frequency, abscisic acid (ABA) at 25 μM was added in microspore culture medium NLN-10S with 0.1 -0.2 mM glyphosate 14 days after bombardment. The resistant embryos were partially desiccated in a Petri dish for one week at 25° C. The Petri dish contained a piece of Bounty paper towel with water for maintaining moisture.
# microspores = tested on: microspores
# Description: • DNA constructs with promoter AT-UBIQ10 and glyphosate resistant gene GAT4621 were used in the following experiments. • 1. […] In developing canola transformation procedure, microspores were cultured for two days or three days in IM-17M and then cultured in NLN-10S for one day or not before bombardment.
# • 2. Effect of CaC12 in IM-17M before bombardment and NLN-13S with 5 μM trifluralin on transformation efficiency • 15 mM calcium chloride was supplemented in IM-17M in microspore culture before bombardment.
# It was further studied that calcium chloride was supplemented in NLN-13S with 5 μM trifluralin after bombardment on transformation efficiency.
# embryos = test: PCIB in embryo germination medium on germination frequency; type: cell-based, canola
# Description: • 4. Increase embryo germination frequency • One of technical challenges in canola transformation was that embryo germination frequency was only around 20%. Antiauxin 2-(p-Chlorophenoxy)-2-methylpropionic acid (PCIB) was included in embryo germination medium BGM for inhibiting callusing. Embryo germination frequency was doubled when 0.0625-1 mg/l PCIB was added in BGM with 0.1 mM glyphosate
# [1] = tested on: pre-incubated microspores; test: Sucrose in osmotic medium: resistant embryo production; type: cell-based, Brassica; conditions: Total of 4 reps
# Description: The purpose of this experiment was to find the optimal concentration of sucrose in the osmotic medium. Microspores were cultured for 4-7 days using 17S/10S protocol. […] The rupture disk was 900 psi. […] The diluted cultures were incubated in the light for 2-3 weeks.
# [2] = tested on: microspore-derived hypocotyls; test: Sucrose in osmotic medium: transient GUS expression; type: cell-based, Brassica; conditions: for # with GUS: 24 hypocotyls
# Description: Experiments 3 to 7 describe work done using microspore-derived hypocotyls. Microspores were isolated as is known to those skilled in the art and cultured in NLN medium for 21 to 28 days (Swanson et al., 1987). Hypocotyls were excised from the embryos produced from the microspores when the embryos were approximately 3-5 mm in size. Microspores of cultivar 46A65 were cultured in NLN medium for approximately 21 days. On the 21st day, the NLN medium was changed and diluted (1:20) with fresh NLN medium and the embryos were cultured for 5 more days. The hypocotyls were excised from the embryos and preconditioned overnight on MMW+BAP (4 mg/l)+NAA (0.25 mg/l). The hypocotyls were transferred to osmotic medium (for example, 17% sucrose+1% agar+1 g/l MES, pH 6.0) for 4 hours and then bombarded. The DNA construct used in bombardments was PHP 18644. After bombardment, the hypocotyls were cultured on the osmotic medium for approximately between 4 and 20 hours (for example, overnight). The bombarded hypocotyls were then cultured on MMW+BAP (4 mg/l)+kanamycin (25-50 mg/l) for bud induction. Regenerated buds were cultured on MMW+kanamycin (50-100 mg/l) or MMW+BAP (0.2 mg/l)+kanamycin (50-100 mg/l) for plant regeneration. The following experiments were done to test the effect of sucrose concentration, amount of gold particle used and the effect of rupture disk on transformation frequency.
# The objective was to find the appropriate concentration of sucrose in the osmotic medium (sucrose+1% agar+1 g/l MES, pH 6.0) in order to produce the highest transformation efficiency.
# GUS analysis is known to those skilled in the art. The protocol can be found in numerous references, for example Wu H, McCormac A C, Elliott M C, Chen D F (1998) Agrobacterium-mediated s table transformation of cell suspension cultures of barley (Hordeum vulgare). Plant Cell Tissue and Organ Culture 54:161-171.
# [3] = tested on: non-transgenic microspores; test: G418 selection kill curve: embryo growth and survival in liquid medium; type: cell-based, Brassica; conditions: for # Green embryos or with green island: liquid medium
# Description: (§1) The objective was to determine the concentration of G418 that kills non-transgenic microspores. Prior to this experiment, selection was done on solid medium, not in liquid medium. Using liquid selection for Brassica transgenic cells is novel. Selection in liquid medium is advantageous for at least the following reasons: (a) it allows selection at an early stage, thereby eliminating the need for subsequent transfers of explants, (b) it allows for a cleaner selection because the explants are generally smaller when they are in liquid medium and the liquid allows all the surfaces of the explant to be exposed to the selection agent, (c) it may reduce the frequency of chimeras, and (d) a lower amount of the selection agent is needed therefore reducing the toxicity to the researcher and the environment. The effect of various concentrations of kanamycin on embryo growth in liquid medium was tested. […] Accordingly, it was difficult to discriminate transgenic tissue or embryos from non-transgenic.
# [4] = tested on: pre-incubated microspores; test: Glyphosate resistant embryo selection after bombarding pre-incubated microspores; type: cell-based, Brassica
# Description: Experiments 8 to 17 describe the work done using pre-incubated microspores. The microspores were cultured in NLN-17S/10S for 2-10 days. Optimally, the microspores are cultured for 5-7 days. Embryos could not be detected with the naked eye. The embryogenic microspores were collected so that they remain viable and embryogenic with a Nitex™ sieve (15-36 um in pore size) or Percoll® (35-45%) gradient centrifugation. Pre-incubated microspores were used as bombarded materials. Any Brassica line that is capable of regenerating by microspore culture can be used. The microspores were cultured for 1-3 days in NLN-17S at 31.5° C., and then in NLN-10S for 4-5 days at 25° C. The constructs used in the bombardments were PHP18644, PHP21965, PHP22024, PHP22021, and PHP23560 (see Table 9). The constructs can be the full plasmid or the expression cassette only. For example, PHP22024 can be either the expression cassette or the full plasmid. The pre-incubated microspores were filtrated with sieves of pore size of 15 μm to 36 μm. The collected microspores were used for bombardment. The microspores were loaded on a sieve 15 μm or 20 μm on two layers of filter-paper and dried for less than one minute. […] Resistant embryos were recorded after two to three weeks of culture. […]
# [5] = tested on: non-bombarded and bombarded embryos; test: Effect of kanamycin on embryo growth in liquid medium; type: cell-based, Brassica
# Description: as §1
# [6] = ABA 25 μM plus partial desiccation
# [7] = 15 mM CaCl2 in IM-17M before bombardment, 24 shots
smiles,measurement,setting,value
"CC1=CC(=O)CC(C)(C)[C@@]1(O)/C=C/C(C)=C\C(=O)O [ABA, abscisic acid]",Total shoots,"resistant embryos; ABA 25 μM in NLN-10S 14 days after bombardment plus partial desiccation one week, 479 embryos",338
same,Germination,resistant embryos; [6],76.6%
same,"embryo germination frequency, change",resistant embryos; [6],significantly increased
"[Ca+2].[Cl-].[Cl-] [CaCl2, calcium chloride]",# embryos,microspores; [7],574
same,Embryos/shot,microspores; [7],23.9
same,Embryos/shot,"microspores; CaCl2 0 mM in IM-17M, 10 mM in NLN-13S + trifluralin",11
same,# embryos,"microspores; CaCl2 0 mM in IM-17M, 10 mM in NLN-13S + trifluralin, 15 shots",169
same,Embryos/shot,"microspores; CaCl2 0 mM in IM-17M, 20 mM in NLN-13S + trifluralin",16
same,# embryos,"microspores; CaCl2 0 mM in IM-17M, 20 mM in NLN-13S + trifluralin, 19 shots",300
same,Embryos/shot,"microspores; CaCl2 15 mM in IM-17M, 0 mM in NLN-13S + trifluralin",6
same,# embryos,"microspores; CaCl2 15 mM in IM-17M, 0 mM in NLN-13S + trifluralin, 22 shots",139
"CC(C)(Oc1ccc(Cl)cc1)C(=O)O [PCIB, 2-(p-Chlorophenoxy)-2-methylpropionic acid]","embryo germination frequency, change",embryos; 0.0625-1 mg/l PCIB in BGM with 0.1 mM glyphosate,doubled
same,Germination frequency,embryos; PCIB 0.0625 mg/l,44%
same,# plantlets,"embryos; PCIB 0.0625 mg/l in BGM with 0.1 mM glyphosate, 63 embryos",28
same,Germination frequency,embryos; PCIB 0.125 mg/l,43%
same,# plantlets,"embryos; PCIB 0.125 mg/l, 72 embryos",31
same,Germination frequency,embryos; PCIB 0.25 mg/l,50%
same,# plantlets,"embryos; PCIB 0.25 mg/l, 72 embryos",36
same,Germination frequency,embryos; PCIB 0.5 mg/l,44%
same,# plantlets,"embryos; PCIB 0.5 mg/l, 63 embryos",28
same,Germination frequency,embryos; PCIB 1 mg/l,44%
same,# plantlets,"embryos; PCIB 1 mg/l, 81 embryos",36
"OC[C@H]1O[C@@](CO)(O[C@H]2O[C@H](CO)[C@@H](O)[C@H](O)[C@H]2O)[C@@H](O)[C@@H]1O [Sucrose, sucrose]",Resistant embryos/plate,[1]; 17% sucrose,2.5
same,Resistant embryos/plate,[1]; 19% sucrose,2.1
same,# spots/hypocotyls,[2]; 15% sucrose,9.8
same,# total spots,[2]; 15% sucrose,236
same,# with GUS,[2]; 15% sucrose,23
same,# spots/hypocotyls,[2]; 17% sucrose,10.1
same,# total spots,[2]; 17% sucrose,242
same,# with GUS,[2]; 17% sucrose,23
same,# spots/hypocotyls,[2]; 19% sucrose,19.8
same,# total spots,[2]; 19% sucrose,475
same,# with GUS,[2]; 19% sucrose,23
same,# spots/hypocotyls,[2]; 21% sucrose,16.7
same,# total spots,[2]; 21% sucrose,400
same,# with GUS,[2]; 21% sucrose,24
"CN[C@@H]1[C@@H](O)[C@@H](O[C@@H]2[C@@H](O)[C@H](O[C@H]3O[C@H]([C@@H](C)O)[C@@H](O)[C@H](O)[C@H]3N)[C@@H](N)C[C@H]2N)OC[C@]1(C)O [Variant G418, G418 disulfate salt]",# Green embryos or with green island,"[3]; G418 1.25 mg/l, disulfate salt",30 and 28
same,# Green embryos or with green island,"[3]; G418 2.5 mg/l, disulfate salt",14 and 11
same,# Green embryos or with green island,[3]; G418 5 mg/l,0
same,# Green embryos or with green island,[3]; G418 10 mg/l,0
same,concentration sufficient to differentiate transformed cells from untransformed cells,[3]; NLN with 6.5% sucrose medium,5 to 10 mg/L
O=C(O)CNCP(=O)(O)O [glyphosate],identification of resistant embryos,[4]; glyphosate 0.1 mM or 0.2 mM,allowed identification of resistant embryos
same,selection efficiency,[4]; glyphosate 0.2 mM versus 0.1 mM,fewer false positive results
NC[C@H]1O[C@H](O[C@H]2[C@H](O)[C@@H](O[C@H]3O[C@H](CO)[C@@H](O)[C@H](N)[C@H]3O)[C@H](N)C[C@@H]2N)[C@H](O)[C@@H](O)[C@@H]1O [kanamycin],concentration sufficient to bleach non-bombarded embryos and inhibit non-bombarded embryo growth,[5],10 mg/L
